The record followed here is paper PMC4268698, “Cell type-specific delivery of short interfering RNAs by dye-functionalised theranostic nanoparticles” (Nature Communications, 2014).

The nature of series [1]: In vivo pharmacokinetics of polymethine dyes (organ-specific clearance by liver and kidneys). Set-up: species or system male Wistar rats. To be noted: i.v., rats. On the procedure:
Catheters were placed in the jugular vein, carotid artery, bladder and bile duct of male Wistar rats (300–400 g body weight (BW)). After i.v. administration of DY-635 (13 pmol per g BW), DY-630 (13 pmol per g BW), DY-750 (13 pmol per gBW), DY-751 (13 pmol per g BW), DY-731 (13 pmol per g BW), DY-777 (14 pmol per g BW), DY-682 (13 pmol per g BW), DY-704 (17 pmol per g BW), DY-732 (13 pmol per g BW), DY-754 (17 pmol per g BW), DY-678 (14 pmol per g BW), DY-778 (14 pmol per g BW) or 6.5 μg DY625-[NP] per g BW, bile was collected every 5 min and 200 μl arterial blood taken at defined times into heparinised tubes. DY-635 fluorescence in bile and plasma was measured in a spectrofluorometer (FluoStar Optima, BMG Labtech). Results are mean±s.e.m. of three biological replicates.

For another series, the target named is T1, NTCP (Homo sapiens, UniProt Q14973).
T1 construct: expressed in transfected cells; host or cells: HEK293 (pcDNA5 vector)
T1 sequence (Q14973 1-349): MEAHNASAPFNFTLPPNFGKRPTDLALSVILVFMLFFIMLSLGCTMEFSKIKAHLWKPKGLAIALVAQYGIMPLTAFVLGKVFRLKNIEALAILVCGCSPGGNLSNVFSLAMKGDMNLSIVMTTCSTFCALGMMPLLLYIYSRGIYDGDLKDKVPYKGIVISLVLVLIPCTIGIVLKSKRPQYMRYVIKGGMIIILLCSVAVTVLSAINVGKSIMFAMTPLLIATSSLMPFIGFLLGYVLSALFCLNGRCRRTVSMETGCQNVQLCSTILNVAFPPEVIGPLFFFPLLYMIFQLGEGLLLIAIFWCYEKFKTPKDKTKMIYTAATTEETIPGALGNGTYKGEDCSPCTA
Description: DY-635 interaction with hepatic basolateral transporters, transfected HEK293 cells, radio-labelled substrate uptake. In kind it is cell-based. To be noted: 10 μM DY-635; substrate [3H]estrone-sulfate 10 μM; transfected HEK cells. On the procedure: (§1) HEK293 cells were transfected with OATP1B1 (SLCO1B1, NM_006446), OATP1B3 (SLCO1B3, NM_019844), OCT1 (SLC22A1, NM_003057.2), OAT2 (SLC22A7, NM_006672), NTCP (SLC10A1, NM_003049), NaDC3 (SLC13A3, AF154121) or the empty vector (pcDNA5).Transfected HEK293 cells were seeded at 2 × 10^5 cells per well and cultured for 3 days.

The target in a further series is T2, OATP1B1 (Homo sapiens, UniProt Q9Y6L6).
T2 construct: expressed in transfected cells; host or cells: HEK293 (pcDNA5 vector)
T2 sequence (Q9Y6L6 1-691): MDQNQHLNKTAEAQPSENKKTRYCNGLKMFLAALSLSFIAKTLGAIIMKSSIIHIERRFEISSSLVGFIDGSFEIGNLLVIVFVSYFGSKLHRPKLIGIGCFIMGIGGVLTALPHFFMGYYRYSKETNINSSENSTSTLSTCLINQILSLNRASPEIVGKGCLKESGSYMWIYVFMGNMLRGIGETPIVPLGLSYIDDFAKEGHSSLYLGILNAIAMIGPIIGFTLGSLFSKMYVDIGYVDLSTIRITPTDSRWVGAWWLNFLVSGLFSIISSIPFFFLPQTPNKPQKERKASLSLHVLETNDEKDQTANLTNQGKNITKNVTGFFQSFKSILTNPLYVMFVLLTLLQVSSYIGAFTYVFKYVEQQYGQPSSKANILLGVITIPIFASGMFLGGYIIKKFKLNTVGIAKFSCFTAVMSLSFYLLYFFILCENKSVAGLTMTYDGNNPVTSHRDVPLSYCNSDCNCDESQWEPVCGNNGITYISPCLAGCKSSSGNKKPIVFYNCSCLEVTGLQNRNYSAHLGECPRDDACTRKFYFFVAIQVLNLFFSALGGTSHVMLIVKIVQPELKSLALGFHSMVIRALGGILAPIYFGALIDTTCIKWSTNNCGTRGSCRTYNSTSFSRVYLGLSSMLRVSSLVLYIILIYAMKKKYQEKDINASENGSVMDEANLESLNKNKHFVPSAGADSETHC
The description is as above. Type of series: cell-based. As to conditions: 10 μM DY-635 vs rifampicin 20 μM; substrate [3H]estrone-sulfate 30 nM; transfected HEK cells. On the procedure: as §1

The target of another series is T3, OATP1B3 (Homo sapiens, UniProt Q9NPD5).
T3 construct: expressed in transfected cells; host or cells: HEK293 (pcDNA5 vector)
T3 sequence (Q9NPD5 1-702): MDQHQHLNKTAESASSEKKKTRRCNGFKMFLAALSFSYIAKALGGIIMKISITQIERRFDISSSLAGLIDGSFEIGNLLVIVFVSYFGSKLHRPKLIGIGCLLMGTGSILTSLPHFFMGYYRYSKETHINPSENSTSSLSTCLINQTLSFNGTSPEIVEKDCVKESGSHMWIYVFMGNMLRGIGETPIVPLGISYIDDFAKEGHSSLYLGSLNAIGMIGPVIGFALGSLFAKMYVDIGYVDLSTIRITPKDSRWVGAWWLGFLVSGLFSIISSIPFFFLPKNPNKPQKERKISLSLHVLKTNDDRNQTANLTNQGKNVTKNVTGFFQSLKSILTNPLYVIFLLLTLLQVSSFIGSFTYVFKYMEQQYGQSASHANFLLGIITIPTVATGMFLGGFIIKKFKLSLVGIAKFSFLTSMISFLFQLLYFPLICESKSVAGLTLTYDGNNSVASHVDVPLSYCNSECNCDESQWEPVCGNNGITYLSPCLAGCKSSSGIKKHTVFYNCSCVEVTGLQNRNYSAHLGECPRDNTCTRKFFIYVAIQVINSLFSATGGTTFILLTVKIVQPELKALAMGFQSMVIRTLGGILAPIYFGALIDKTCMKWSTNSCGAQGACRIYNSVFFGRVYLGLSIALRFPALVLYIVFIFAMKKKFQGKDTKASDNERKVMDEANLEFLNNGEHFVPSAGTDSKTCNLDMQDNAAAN
Described as above. In kind it is cell-based. As to conditions: 10 μM DY-635 vs rifampicin 20 μM; substrate [3H]sulfobromphthalein 50 nM; transfected HEK cells. The protocol: as §1

The test system of series [2] is primary murine hepatocytes. Kind of series: Uptake of free DY-635 by primary hepatocytes, with and without cyclosporine A. Type of series: cell-based, mouse. To be noted: 37 or 4 °C.
Description: This was then diluted 1:1 (v/v) with either 400 nM DY-635 (amino-terminated) or 10 μg NP in KHB. […] Lysates were analysed on a Tecan plate reader (Tecan) (excitation: 488±09 nm, emission 530±20 nm). […] Data were normalised to cellular protein (Bradford).
A further series deals with liver parenchyma. Description: Intravital microscopy of liver (fluorescence decay, cellular association). To be noted: Cy5 channel, after injection. Type of series: in vivo, male FVB/NRj mice. On the procedure: IVM was performed using an inverted epifluorescence microscope (AxioObserverR Z1; Zeiss) as described previously.
For another series, the system named is HepaRG and HUVEC cells. Description: Microfluidic-assisted organoid, co-culture of HepaRG and HUVEC, nanoparticle uptake. In kind it is cell-based, human.

Entries after “also recorded” stand apart in the source; their conditions may differ.

Description for HepaRG and HUVEC cells: HUVEC and HepaRG cells were co-cultured using a microfluidic-supported chip. […] 2.7 × 10^4 cells per cm^2 were seeded in William’s E medium supplemented with 10% foetal bovine serum, 100 U ml^−1 penicillin, 100 g ml^−1 streptomycin, 5 U ml^−1 insulin and 5 × 10^−5 M hydrocortisone-hemisuccinate and cultured for 2 weeks. For HepaRG differentiation, cells were cultured with 2% dimethylsulfoxide for two more weeks. Differentiated HepaRG cells were seeded at 4,000 cells per mm^2 at the bottom of the chip cavities beneath the membrane. 300,000 HUVEC (4,300 cells per mm^2) were seeded above the membrane and co-cultured with differentiated HepaRG cells in for 24 h before the uptake experiments. Cells were perfused with 50 μg ml^−1 NPs in Williams E medium. […] For each time point three pictures were taken and 200 region of interest (ROI) per picture were analysed.

In the case of `CC(C)(C)c1cc(/C=C/C=C2/N(CCCCCC(=O)NCCN)c3ccc(S(=O)(=O)O)cc3C2(C)C)c2cc3c4c(c2[o+]1)CCCN4CCC3` [DY-635], in series [1], the “route of elimination (net organ-specific clearance)” value is recorded as “excreted preferentially via the bile; also recorded: preferential hepatobiliary clearance”. In addition, the “affinity to NTCP” value at NTCP was “moderate affinity”. Also, at OATP1B1, the “affinity to OATP1B1 compared with FDA-proposed competitor” value is “substantially exceeded that of the Food and Drug Administration (FDA) proposed ligand for drug development, rifampicin”. Besides, the “affinity to OATP1B3 compared with FDA-proposed competitor” value at OATP1B3 is “substantially exceeded that of the Food and Drug Administration (FDA) proposed ligand for drug development, rifampicin”. In addition, the “uptake of DY-635 by primary hepatocytes” value in series [2] is on record as “rapid, temperature sensitive”. Moreover, the “fluorescence decay over liver parenchyma” value in the series with liver parenchyma is “exponential decay”.
On to `O=C1NC(=NS(=O)(=O)c2cccc3ccccc23)S/C1=C\c1ccc(Br)cc1` [Pitstop-2], for which the “effect on uptake of DY-635[NP](−)” value in the series with HepaRG and HUVEC cells is “inhibition of NP uptake”.
